Measured values: paper PMC10347550, “Cyclic Ruthenium-Peptide Conjugates as Integrin-Targeting Phototherapeutic Prodrugs for the Treatment of Brain Tumors” (Journal of the American Chemical Society, 2023)
Where two headings read alike, the source gives them in different places.

Columns and labels:
A549 cells = assay: 2D cytotoxicity assay, 24 h DLI & no wash, SRB endpoint; format: cell-based, human; conditions: for EC50: A549 2D monolayer, not washed, n = 3
Method: (§1) For each complex, two identical plates were prepared, one of which was irradiated with light, while the other was used as a dark control. […] Finally, at t = 96 h, 100 μL of cold trichloroacetic acid (10% w/v) was added to each well to fix the cells, and all plates were then transferred to a 4 °C refrigerator for 48 h before performing an SRB cell quantification endpoint assay.[72] Trichloroacetic acid was first removed and each plate was gently washed with demi water 3–5 times. Then, each well was dried in the air, and 100 μL of 0.6% SRB solution (0.6% w/v in 1% v/v acetic acid/H2O solution) was added into each well where it was allowed to stain for 30 min. Then, the plates were washed 3–5 times using an acetic acid solution (1% v/v). Once the plate was washed it was allowed to dry overnight. Then, 200 μL of 10 mM Tris base buffer was added to each well and the plate was allowed to sit on an orbital shaker for 0.5–16 h. After mixing, the absorbance of each well was determined by an M1000 Tecan Reader, reading at 510 nm. All experiments were conducted in independent biological triplicate. The obtained data were analyzed with Graphpad Prism 5 using the dose–response two-parameter Hill slope equation (eq 1) to obtain the half-maximal effective concentrations EC50 (defined as the concentration of drug that kills 50% of cells, compared to the untreated control). [drawing 1] 1

PC-3 cells = assay: as above; format: cell-based, human; conditions: for EC50: PC-3 2D monolayer, not washed, SRB at 96 h, n = 3
Method: as §1

U87MG cells [1] = assay: as above; format: cell-based, human; conditions: for EC50: U87MG 2D monolayer, not washed, SRB at 96 h, n = 3; for PI (EC50,dark/EC50,light): U87MG
Method: as §1

[2] = test system: ITGAV knockdown U87MG cells (U87MG-kd); assay: Cellular Ru uptake by ICP-MS, 2 h; format: cell-based, human; conditions: 10 μM, dark, normoxia, n = 3
Method: The uptake studies in U87MG and U87MG-kd cell lines were conducted as follows: 2 × 10^5 cells were cultured in 6-well plates for 24 h in Opti-MEM (2 mL), after which cells were incubated with Δ-[1]Cl2 or Δ-[3]Cl2 (10 μM) for 2 h, washed with cold PBS twice, harvested, concentrated in 200 μL of PBS, and counted using trypan blue and a cell counter (Bio-Rad). Finally, cell pellets were collected in 1.5 mL Eppendorf tubes after removing additional PBS by centrifuging at 500g; 0.25 mL of 65% HNO3 was then added to each tube, and all tubes were kept at room temperature (RT) overnight. The cell lysates were transferred to 15 mL centrifuge tubes (Biologix) and filled with 4.75 mL of MilliQ H2O.
The ruthenium concentration was measured in each sample by ICP-MS (NexION 2000, PerkinElmer), providing the metal content in each well in ppb. Combining the cell numbers and Ru uptake, averaging over technical triplicates, the ruthenium uptake values were finally expressed in μg Ru/million cells.

U87MG cells [3] = assay: Apopxin/Nuclear Green DCS1 double-staining cell death mode study; format: cell-based, human; conditions: 20 μM, 24 h incubation, 1 h after green light (13.1 J/cm^2), flow cytometry
Method: After 24 h of incubation, one plate labeled light was irradiated for 20 min using 520 nm green light (13.1 J/cm^2), and then both plates were allowed to incubate further for 1, 2, 6, or 24 h in a normoxia incubator. After incubation, the cells were trypsinized, collected, and washed with cold PBS twice. […] Cells after staining were detected by flow cytometry (CytoFLEX flow cytometer) immediately. Control groups with only assay buffer, only buffer and Apopxin Deep Red Indicator, only buffer and Nuclear Green DCS1, and all three were included to be used for gating during data analysis. Parameters APC (638 nm excitation, 660/10 nm emission) and FITC (488 nm excitation, 525/40 nm emission) were used considering their similar excitation/emission wavelength with two detectors Apopxin Deep Red Indicator, Ex/Em = 630/660 nm (apoptosis), and Nuclear Green DCS1, Ex/Em = 490/520 nm (necrosis).

[4] = Dark stability by UV-vis spectroscopy; format: physicochemical; conditions: 24 h
[5] = 1% O2, dark, 24 h treatment, SRB at 96 h, read-out: EC50,dark
[6] = 1% O2, 520 nm, 7.22 mW/cm^2, 13.1 J/cm^2, 30 min, SRB at 96 h, read-out: EC50,light
[7] = 21% O2, dark, 24 h treatment, SRB at t = 96 h, read-out: EC50,dark
[8] = 21% O2, 24 h treatment, 520 nm, 10.9 mW/cm^2, 13.1 J/cm^2, 20 min, SRB at 96 h, read-out: EC50,light
[9] = 1% O2, dark, 24 h treatment, read-out: EC50,dark
[10] = 1% O2, 520 nm, 7.22 mW/cm^2, 13.1 J/cm^2, 30 min, read-out: EC50,light
[11] = 21% O2, dark, 24 h treatment, read-out: EC50,dark
[12] = 21% O2, 520 nm, 10.9 mW/cm^2, 13.1 J/cm^2, 20 min, read-out: EC50,light

Substance | EC50 (A549 cells; [5]) [µM] | EC50 (A549 cells; [6]) [µM] | EC50 (A549 cells; [7]) [µM] | EC50 (A549 cells; [8]) [µM] | PI (EC50,dark/EC50,light) (A549 cells; A549, 1% O2) | PI (EC50,dark/EC50,light) (A549 cells; A549, 21% O2) | EC50 (PC-3 cells; [9]) [µM] | EC50 (PC-3 cells; [10]) [µM] | EC50 (PC-3 cells; [11]) [µM] | EC50 (PC-3 cells; [12]) [µM] | PI (EC50,dark/EC50,light) (PC-3 cells; PC-3, 1% O2) | PI (EC50,dark/EC50,light) (PC-3 cells; PC-3, 21% O2) | EC50 (U87MG cells [1]; [9]) [µM] | EC50 (U87MG cells [1]; [10]) [µM] | EC50 (U87MG cells [1]; [11]) [µM] | EC50 (U87MG cells [1]; [12]) [µM] | PI (EC50,dark/EC50,light) (U87MG cells [1]; 1% O2) | cell death mode (U87MG cells [3]) | other results
[Ru(Ph2phen)2(κ^S,κ^N-(Ac-MRGDH-NH2))]Cl2 (sidechain bridge or staple) [Δ-[1]Cl2] [cyclic ruthenium-peptide conjugate, Ac-MRGDH-NH2 coordinated via Met S and His N] | 50.1 | 17.3 | 72.5 | 4.3 | 2.9 | 17 | 61.4 | 50.7 | 52 | 6 | 1.2 | 9 | 42.7 | 18.8 | 39.5 | 3.6 | 2.3 | died mainly via necrosis | PI (EC50,dark/EC50,light) (U87MG cells [1]; 21% O2): 11; uptake amount compared to U87MG-wt cells [2]: significantly decreased; dark stability, absorbance spectra ([4]; 50 μM in Opti-MEM containing 2.5% FCS, UV-vis): did not show any variation for 24 h; intensity of the UV-vis spectrum ([4]; 50 μM in Opti-MEM deprived of FCS): gradually decreased, suggesting precipitation
[Ru(Ph2phen)2(κ^S,κ^N-(Ac-MRGDH-NH2))]Cl2 (sidechain bridge or staple) [Λ-[1]Cl2] [cyclic ruthenium-peptide conjugate, Ac-MRGDH-NH2 coordinated via Met S and His N] | 51 | 19 | 66.8 | 5 | 2.7 | 13 | 74.3 | 46.5 | 66.6 | 5.3 | 1.5 | 12 | 41.4 | 19 | 41.6 | 3.8 | 2.2 | died mainly via necrosis | –
